The numbers were not newly measured in US20140004177A1, “COX-2 INHIBITORS AND RELATED COMPOUNDS, AND SYSTEMS AND METHODS FOR DELIVERY THEREOF” (Strategic Science & Technologies, LLC, priority 2010, published 2014), which cites them from elsewhere.

As a reminder, the pKa is the pH at which an ionisable group is half protonated.

Consider `CS(=O)(=O)c1ccc(C2=C(c3ccccc3)C(=O)OC2)cc1` [rofecoxib], for which the pKa was 19.7.
